Our source for the IC50 values is patent publication USRE50050E1, “Pyrimidinedione compounds” (MyoKardia, Inc., priority 2013, dated 2024).

Structures are written as SMILES.

In the first assay the target is T1, bovine cardiac myosin (Bos taurus, UniProt Q9BE39).
T1 construct: The source of cardiac myosin was from bovine heart in the form of skinned myofibrils; from tissue; host or cells: bovine heart, skinned myofibrils
T1 sequence (Q9BE39 whole entry): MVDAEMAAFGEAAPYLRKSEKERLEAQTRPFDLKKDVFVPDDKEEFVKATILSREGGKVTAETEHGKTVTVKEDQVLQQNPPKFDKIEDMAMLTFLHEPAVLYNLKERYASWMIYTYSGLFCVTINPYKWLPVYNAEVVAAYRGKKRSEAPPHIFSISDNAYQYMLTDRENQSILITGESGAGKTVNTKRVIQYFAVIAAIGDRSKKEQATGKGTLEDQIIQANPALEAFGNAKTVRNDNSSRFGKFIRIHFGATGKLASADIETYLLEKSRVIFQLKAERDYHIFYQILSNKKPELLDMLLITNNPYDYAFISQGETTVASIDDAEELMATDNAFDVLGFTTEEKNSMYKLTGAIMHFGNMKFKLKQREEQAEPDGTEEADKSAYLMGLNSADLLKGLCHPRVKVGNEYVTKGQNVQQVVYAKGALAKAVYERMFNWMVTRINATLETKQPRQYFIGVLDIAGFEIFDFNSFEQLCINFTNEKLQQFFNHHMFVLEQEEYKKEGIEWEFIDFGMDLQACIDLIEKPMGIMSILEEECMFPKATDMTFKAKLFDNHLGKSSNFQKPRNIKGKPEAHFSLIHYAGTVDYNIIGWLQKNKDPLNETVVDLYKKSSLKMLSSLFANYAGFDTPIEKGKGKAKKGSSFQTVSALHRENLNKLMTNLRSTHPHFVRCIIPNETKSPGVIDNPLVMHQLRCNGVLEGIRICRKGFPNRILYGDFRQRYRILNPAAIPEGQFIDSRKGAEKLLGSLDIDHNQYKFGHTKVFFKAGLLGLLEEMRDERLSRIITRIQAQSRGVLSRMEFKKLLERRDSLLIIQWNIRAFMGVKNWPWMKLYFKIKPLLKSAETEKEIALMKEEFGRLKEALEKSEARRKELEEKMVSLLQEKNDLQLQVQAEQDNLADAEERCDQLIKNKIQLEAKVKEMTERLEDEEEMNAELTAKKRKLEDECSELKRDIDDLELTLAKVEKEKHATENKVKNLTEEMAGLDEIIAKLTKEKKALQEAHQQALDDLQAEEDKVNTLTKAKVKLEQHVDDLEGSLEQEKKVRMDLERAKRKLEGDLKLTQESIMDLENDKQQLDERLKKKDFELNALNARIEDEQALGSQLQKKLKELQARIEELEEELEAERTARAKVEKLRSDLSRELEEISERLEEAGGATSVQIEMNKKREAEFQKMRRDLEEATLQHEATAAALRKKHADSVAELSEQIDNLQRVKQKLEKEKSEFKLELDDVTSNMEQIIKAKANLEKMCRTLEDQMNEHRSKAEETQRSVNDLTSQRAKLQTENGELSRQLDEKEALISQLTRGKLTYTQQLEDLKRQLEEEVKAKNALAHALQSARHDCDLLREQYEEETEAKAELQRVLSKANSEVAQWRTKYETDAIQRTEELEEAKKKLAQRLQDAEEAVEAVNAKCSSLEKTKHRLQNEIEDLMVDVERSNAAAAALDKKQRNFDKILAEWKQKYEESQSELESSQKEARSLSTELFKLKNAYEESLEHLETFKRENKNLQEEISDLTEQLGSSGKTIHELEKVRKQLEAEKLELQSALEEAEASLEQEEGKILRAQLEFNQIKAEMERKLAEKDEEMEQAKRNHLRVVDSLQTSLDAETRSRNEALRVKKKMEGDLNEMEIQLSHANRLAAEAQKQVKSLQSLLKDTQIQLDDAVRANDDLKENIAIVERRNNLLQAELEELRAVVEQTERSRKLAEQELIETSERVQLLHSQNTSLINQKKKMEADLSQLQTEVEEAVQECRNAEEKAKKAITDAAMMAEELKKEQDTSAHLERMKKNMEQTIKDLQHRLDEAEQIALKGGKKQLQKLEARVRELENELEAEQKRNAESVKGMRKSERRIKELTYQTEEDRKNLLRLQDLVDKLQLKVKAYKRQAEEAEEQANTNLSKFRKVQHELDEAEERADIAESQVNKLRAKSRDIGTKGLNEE
T1 sequence (P85100 whole entry partner): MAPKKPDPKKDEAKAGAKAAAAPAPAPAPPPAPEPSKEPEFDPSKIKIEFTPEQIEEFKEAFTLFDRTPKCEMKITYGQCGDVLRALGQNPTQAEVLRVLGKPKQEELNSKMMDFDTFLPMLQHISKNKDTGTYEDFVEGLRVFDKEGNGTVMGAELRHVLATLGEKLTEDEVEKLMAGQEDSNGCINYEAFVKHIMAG
T1 sequence (Q3SZE5 whole entry partner): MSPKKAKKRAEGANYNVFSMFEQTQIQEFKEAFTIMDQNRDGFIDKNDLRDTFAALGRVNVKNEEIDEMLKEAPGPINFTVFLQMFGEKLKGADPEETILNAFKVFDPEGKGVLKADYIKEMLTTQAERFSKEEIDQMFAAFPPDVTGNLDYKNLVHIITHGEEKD
In words: Myosin inhibition assay (PK/LDH-coupled ATPase, bovine cardiac myofibrils). Format: biochemical. As to conditions: bovine cardiac myofibrils, calcium giving 50% activation (pCa50); read-out: Biochemical Activity (pCa50).
Take `CC(C)n1c(=O)cc(N[C@@H](C)c2ccc3c(c2)OC(F)(F)O3)[nH]c1=O` [Compound 119]: the IC50 is < 1000 nM.

For the compound `C[C@H](n1c(=O)cc(N[C@@H](C)Cc2ccc(F)cc2)[nH]c1=O)C(F)(F)F` [Compound 114], the IC50 is < 1000 nM.

With `CCn1c(=O)cc(N[C@@H](C)c2cccc(Cl)c2)[nH]c1=O` [Compound 123], the IC50 was < 1000 nM.

Regarding `CC(C)n1c(=O)cc(N[C@@H](COCc2ccccc2)c2ccccc2)[nH]c1=O` [Compound 64, (R)-6-((2-(benzyloxy)-1-phenylethyl)amino)-3-isopropylpyrimidine-2,4(1H,3H)-dione], the IC50 was 1000 to 15000 nM.

Turning to `CC[C@H](Nc1cc(=O)n(CC(F)(F)F)c(=O)[nH]1)c1ccccc1` [Compound 109], the IC50 was 1000 to 15000 nM.

With `CC(C)n1c(=O)cc(N[C@@H](C)c2ccccc2O)[nH]c1=O` [Compound 116], the IC50 is < 1000 nM.

Turning to `C[C@H](Nc1cc(=O)n(CC(F)F)c(=O)[nH]1)c1ccccc1` [Compound 66, (S)-3-(2,2-difluoroethyl)-6-((1-phenylethyl)amino)pyrimidine-2,4(1H,3H)-dione], the IC50 was 1000 to 15000 nM.

Regarding `C[C@H](Nc1cc(=O)n(-c2cccc(F)n2)c(=O)[nH]1)c1ccccc1` [Compound 137], the IC50 is < 1000 nM.

Take `C[C@H](Nc1cc(=O)n(C(CO)CO)c(=O)[nH]1)c1ccccc1` [Compound 113]: the IC50 was 1000 to 15000 nM.

For `CC(C)n1c(=O)cc(N[C@@H](CO)c2ccccc2)[nH]c1=O` [Compound 93], the IC50 lay within 1000 to 15000 nM.

With `CC(C)n1c(=O)[nH]c(N[C@@H](C)c2ccc3c(c2)OC(F)(F)O3)c(Cl)c1=O` [Compound 128], the IC50 was 1000 to 15000 nM.

On to `C[C@H](Nc1cc(=O)n(CC2CC2)c(=O)[nH]1)c1ccccc1` [Compound 110], for which the IC50 was in the range of 1000 to 15000 nM.

Consider `C[C@H](Nc1cc(=O)n(C2CCC(F)(F)CC2)c(=O)[nH]1)c1ccccc1` [Compound 82], for which the IC50 was < 1000 nM.

Turning to `CCCn1c(=O)cc(N[C@@H](C)c2ccc(F)cc2)[nH]c1=O` [Compound 136], the IC50 was < 1000 nM.

In the case of `C[C@H](Nc1cc(=O)n([C@@H](C)CO)c(=O)[nH]1)c1ccccc1` [Compound 92], the IC50 lay within 1000 to 15000 nM.

As for `C[C@H](Nc1cc(=O)n(Cc2ccccc2)c(=O)[nH]1)c1ccccc1` [Compound 57, (S)-3-benzyl-6-((1-phenylethyl)amino)pyrimidine-2,4(1H,3H)-dione], the IC50 is 1000 to 15000 nM.

In the case of `Cc1cccc(-n2c(=O)cc(N[C@@H](C)c3ccccc3)[nH]c2=O)n1` [Compound 65, (S)-3-(6-methylpyridin-2-yl)-6-((1-phenylethyl)amino)pyrimidine-2,4(1H,3H)-dione], the IC50 fell in the range of 1000 to 15000 nM.

As for `CC(C)n1c(=O)cc(N[C@@H](C)c2ccc(OCc3ccccc3)cc2)[nH]c1=O` [Compound 62, (S)-6-((1-(4-(benzyloxy)phenyl)ethyl)amino)-3-isopropylpyrimidine-2,4(1H,3H)-dione], the IC50 was < 1000 nM.

For `CCCn1c(=O)cc(N[C@@H](C)c2cccc(Cl)c2)[nH]c1=O` [Compound 130], the IC50 was < 1000 nM.

With `CCn1c(=O)cc(N[C@@H](C)c2ccc(F)c(F)c2)[nH]c1=O` [Compound 134], the IC50 is < 1000 nM.

Consider `O=c1cc(N[C@H](c2ccccc2)C2CCC2)[nH]c(=O)n1CC(F)(F)F` [Compound 112], for which the IC50 is < 1000 nM.

Turning to `Cc1ccccc1[C@H](C)Nc1cc(=O)n(C(C)C)c(=O)[nH]1` [Compound 68, (S)-3-isopropyl-6-((1-(o-tolyl)ethyl)amino)pyrimidine-2,4(1H,3H)-dione], the IC50 was < 1000 nM.

Take `CC[C@H](Nc1cc(=O)n(CC)c(=O)[nH]1)c1ccccc1` [Compound 36]: the IC50 was 1000 to 15000 nM.

With `CC(C)n1c(=O)cc(N[C@@H](C)c2ccc(O)cc2)[nH]c1=O` [Compound 63, (S)-6-((1-(4-hydroxyphenyl)ethyl)amino)-3-isopropylpyrimidine-2,4(1H,3H)-dione], the IC50 was < 1000 nM.

For `CC(C)n1c(=O)cc(N[C@@H](C)c2cccc(Br)c2)[nH]c1=O` [Compound 35], the IC50 was < 1000 nM.

As for `O=c1cc(N[C@H](c2ccccc2)C2CC2)[nH]c(=O)n1CC(F)(F)F` [Compound 111], the IC50 fell in the range of 1000 to 15000 nM.

The assay is the same for the next values; noted with them: bovine cardiac myofibrils, calcium giving 75% activation (pCa75); read-out: Biochemical Activity (pCa75).
Turning to `CC(C)n1c(=O)cc(N[C@@H](C)c2cccnc2)[nH]c1=O` [Compound 76], the IC50 lay in the range of 1000 to 15000 nM.

For `CC(C)n1c(=O)[nH]c(N[C@@H](C)c2ccccc2)c(Br)c1=O` [Compound 3, (S)-5-Bromo-3-isopropyl-6-((1-phenylethyl)amino)pyrimidine-2,4(1H,3H)-dione], the IC50 is < 1000 nM.

Turning to `CC(C)n1c(=O)cc(N[C@@H](C)c2cc(F)cc(F)c2)[nH]c1=O` [Compound 5, (S)-6-((1-(3,5-Difluorophenyl)ethyl)amino)-3-isopropylpyrimidine-2,4(1H,3H)-dione], the IC50 is < 1000 nM.

In the case of `CC(C)n1c(=O)cc(N[C@H](c2ccccc2)C2CC2)[nH]c1=O` [Compound 6, (S)-6-((Cyclopropyl(phenyl)methyl)amino)-3-isopropylpyrimidine-2,4(1H,3H)-dione], the IC50 is < 1000 nM.

For the compound `C[C@H](Nc1cc(=O)n(-c2ccnnc2)c(=O)[nH]1)c1ccccc1` [Compound 73], the IC50 was 1000 to 15000 nM.

With `C[C@H](Nc1cc(=O)n(-c2cncnc2)c(=O)[nH]1)c1ccccc1` [Compound 74], the IC50 lay in the range of 1000 to 15000 nM.

In the case of `COc1cccc([C@H](C)Nc2cc(=O)n(C(C)C)c(=O)[nH]2)c1` [Compound 21], the IC50 is < 1000 nM.

Regarding `C[C@H](Nc1cc(=O)n([C@@H](C)COCc2ccccc2)c(=O)[nH]1)c1ccccc1` [Compound 91], the IC50 is 1000 to 15000 nM.

Turning to `CC(C)n1c(=O)cc(N[C@@H](CO)c2ccccc2)[nH]c1=O` [Compound 93], the IC50 was < 1000 nM.

Turning to `COC(=O)N1CCC(n2c(=O)cc(N[C@@H](C)c3ccccc3)[nH]c2=O)CC1` [Compound 13, (S)-methyl 4-(2,6-dioxo-4-(1-phenylethylamino)-2,3-dihydropyrimidin-1(6H)-yl)piperidine-1-carboxylate], the IC50 was < 1000 nM.

For `CC(C)n1c(=O)cc(N[C@@H](C)Cc2ccncc2)[nH]c1=O` [Compound 61, (S)-3-isopropyl-6-((1-(pyridin-4-yl)propan-2-yl)amino)pyrimidine-2,4(1H,3H)-dione], the IC50 fell in the range of 1000 to 15000 nM.

As for `CC(C)n1c(=O)[nH]c(N[C@@H](C)c2cccc(F)c2)c(F)c1=O` [Compound 32], the IC50 was < 1000 nM.

Turning to `C[C@H](Nc1cc(=O)n(-c2cccnc2)c(=O)[nH]1)c1ccccc1` [Compound 15, (S)-6-(1-phenylethylamino)-3-(pyridin-3-yl)pyrimidine-2,4(1H,3H)-dione], the IC50 was < 1000 nM.

Take `C[C@H](Nc1cc(=O)n(C2CCC(F)(F)CC2)c(=O)[nH]1)c1ccccc1` [Compound 82]: the IC50 was < 1000 nM.

Take `CC(C)n1c(=O)cc(N[C@@H](C)CCc2ccccc2)[nH]c1=O` [Compound 85]: the IC50 was < 1000 nM.

On to `C[C@H](Nc1cc(=O)n([C@@H](C)CO)c(=O)[nH]1)c1ccccc1` [Compound 92], for which the IC50 was 1000 to 15000 nM.

With `CCn1c(=O)cc(N[C@@H](C)c2ccccc2)[nH]c1=O` [Compound 46], the IC50 fell in the range of 1000 to 15000 nM.

With `C[C@H](Nc1cc(=O)n(C2CCCC2)c(=O)[nH]1)c1ccccc1` [Compound 80], the IC50 was < 1000 nM.

Take `CC(C)n1c(=O)[nH]c(N[C@@H](C)c2cccc(Cl)c2)c(F)c1=O` [Compound 4, (S)-6-((1-(3-Chlorophenyl)ethyl)amino)-5-fluoro-3-isopropylpyrimidine-2,4(1H,3H)-dione]: the IC50 was < 1000 nM.

Consider `C[C@H](Nc1cc(=O)n([C@@H]2CCCOC2)c(=O)[nH]1)c1ccccc1` [Compound 79], for which the IC50 fell in the range of 1000 to 15000 nM.

Regarding `C[C@H](Nc1cc(=O)n(C2CC2)c(=O)[nH]1)c1ccccc1` [Compound 37], the IC50 lay within 1000 to 15000 nM.

Consider `C[C@H](Nc1cc(=O)n(-c2ccon2)c(=O)[nH]1)c1ccccc1` [Compound 16, (S)-3-(Isoxazol-3-yl)-6-(1-phenylethylamino)pyrimidine-2,4(1H,3H)-dione], for which the IC50 lay in the range of 1000 to 15000 nM.

`C[C@H](Nc1cc(=O)n(-c2c(F)cccc2F)c(=O)[nH]1)c1ccccc1` [Compound 58, (S)-3-(2,6-difluorophenyl)-6-((1-phenylethyl)amino)pyrimidine-2,4(1H,3H)-dione]: the IC50 is < 1000 nM.

`CC(C)n1c(=O)cc(N[C@@H](C)c2ccccc2F)[nH]c1=O` [Compound 26]: the IC50 was < 1000 nM.

Take `COC(=O)Cn1c(=O)cc(N[C@@H](C)c2ccccc2)[nH]c1=O` [Compound 86]: the IC50 is 1000 to 15000 nM.

`COC[C@H](Nc1cc(=O)n(C(C)C)c(=O)[nH]1)c1ccccc1` [Compound 29]: the IC50 was < 1000 nM.

Turning to `CC(C)n1c(=O)cc(N[C@@H](C)c2ccc(F)cc2)[nH]c1=O` [Compound 30], the IC50 is < 1000 nM.

Take `CC(C)n1c(=O)cc(N[C@@H](C)Cc2ccccc2)[nH]c1=O` [Compound 90]: the IC50 is 1000 to 15000 nM.

Turning to `C[C@H](Nc1cc(=O)n(C2CCOC2)c(=O)[nH]1)c1ccccc1` (stereo partly drawn) [Compound 11, 6-(((S)-1-phenylethyl)amino)-3-(tetrahydrofuran-3-yl)pyrimidine-2,4(1H,3H)-dione], the IC50 lay in the range of 1000 to 15000 nM.

For the compound `C[C@H](Nc1cc(=O)n(-c2ccn(C)n2)c(=O)[nH]1)c1ccccc1` [Compound 39], the IC50 was < 1000 nM.

As for `C[C@H](Nc1cc(=O)n(CC(F)(F)F)c(=O)[nH]1)c1ccccc1` [Compound 100], the IC50 lay in the range of 1000 to 15000 nM.

For `Cc1cccc([C@H](C)Nc2cc(=O)n(C(C)C)c(=O)[nH]2)c1` [Compound 50, (S)-3-isopropyl-6-((1-(m-tolyl)ethyl)amino)pyrimidine-2,4(1H,3H)-dione], the IC50 was < 1000 nM.

On to `CC(C)n1c(=O)cc(N[C@@H](C)c2cccc(Br)c2)[nH]c1=O` [Compound 35], for which the IC50 was < 1000 nM.

Staying with this assay, now noted: pCa75; assay conducted using 0.5 μM myosin, IC50 values below 1.0 μM are approximate; read-out: IC50 (pCa75).
As to `COc1cccc([C@@H](C)Nc2cc(=O)n(C(C)C)c(=O)[nH]2)c1` [Compound 20R], the IC50 was found to be 19600 nM.

For `COc1cccc([C@H](C)Nc2cc(=O)n(C(C)C)c(=O)[nH]2)c1` [Compound 21], the IC50 amounted to 390 nM.

For the compound `CC(C)n1c(=O)cc(N[C@H](C)c2c(F)cccc2F)[nH]c1=O` [Compound 60R, (R)-6-((1-(2,6-difluorophenyl)ethyl)amino)-3-isopropylpyrimidine-2,4(1H,3H)-dione], the IC50 is > 39200 nM.
